Calls of active or inactive are those of the source.
How the values were obtained:
[1] = NIH-3T3 fibroblast cytotoxicity, dose response, cytotoxicity control, cell-based, fluorescence, Alamar Blue, secondary assay (AID 2327); type: functional;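 also: NIH-3T3 mouse fibroblasts cultured with fluconazole at 8 µg/mL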
[2] = fluconazole-exposed Candida albicans growth modulators – fluorescence, retest, confirmation (AID 2467); type: functional, cell-based
Paired box protein Pax-8 = Paired box protein Pax-8 (Homo sapiens, UniProt Q06710); test: PAX8 transcriptional activity inhibition in RMG-I – RMG-I cells, luciferase, cherry-pick, dose response (AID 687027); type: functional, cell-based;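 also: luciferase reporter driven by Pax8 target thyroperoxidase promoter measured by SteadyGlo luminescence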
Sequence of Paired box protein Pax-8 (Q06710 whole entry): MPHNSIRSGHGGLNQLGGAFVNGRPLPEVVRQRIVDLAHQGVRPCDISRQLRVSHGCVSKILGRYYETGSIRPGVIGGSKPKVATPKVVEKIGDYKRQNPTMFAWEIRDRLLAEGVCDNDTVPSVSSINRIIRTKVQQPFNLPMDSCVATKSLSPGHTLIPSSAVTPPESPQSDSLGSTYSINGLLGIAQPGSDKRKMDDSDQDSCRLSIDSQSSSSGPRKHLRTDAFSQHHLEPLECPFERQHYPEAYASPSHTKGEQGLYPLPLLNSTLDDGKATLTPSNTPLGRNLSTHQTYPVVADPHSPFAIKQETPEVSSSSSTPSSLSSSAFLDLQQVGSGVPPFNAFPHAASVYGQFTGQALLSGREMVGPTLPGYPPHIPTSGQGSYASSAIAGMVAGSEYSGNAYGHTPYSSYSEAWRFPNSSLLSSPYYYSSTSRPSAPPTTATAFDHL

[3] = viability of uninfected HEp-2 cells – cell-based, HTS, cytotoxicity control for RSV inhibitor project, dose response (AID 2410); type: functional; details: human respiratory syncytial virus
[4] = molecular target: T1, Carboxy-terminal domain RNA polymerase II polypeptide A small phosphatase 1 (Homo sapiens, UniProt Q9GZU7); test: CTDSP1 inhibitors, concentration-response, biochemical, absorbance readout, ultra-high-throughput screen actives (AID 540297); type: functional
T1 sequence (Q9GZU7 whole entry): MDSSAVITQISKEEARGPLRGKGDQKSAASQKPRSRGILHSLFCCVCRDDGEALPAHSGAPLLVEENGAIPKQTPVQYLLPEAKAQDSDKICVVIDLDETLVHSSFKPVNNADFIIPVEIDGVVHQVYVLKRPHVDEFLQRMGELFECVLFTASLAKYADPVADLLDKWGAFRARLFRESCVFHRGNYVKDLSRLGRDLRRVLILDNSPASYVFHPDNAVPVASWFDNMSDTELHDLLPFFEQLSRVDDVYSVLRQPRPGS

[5] = molecular target: T2, Corticotropin-releasing factor receptor 2/Corticotropin-releasing factor-binding protein (Homo sapiens, UniProt P24387+Q13324); test: Dose Response confirmation of uHTS hits for small molecule antagonists of the CRF-binding protein and CRF-R2 receptor complex.; type: functional; details: read-out: IC50_Mean
T2 sequence (Q13324 whole entry): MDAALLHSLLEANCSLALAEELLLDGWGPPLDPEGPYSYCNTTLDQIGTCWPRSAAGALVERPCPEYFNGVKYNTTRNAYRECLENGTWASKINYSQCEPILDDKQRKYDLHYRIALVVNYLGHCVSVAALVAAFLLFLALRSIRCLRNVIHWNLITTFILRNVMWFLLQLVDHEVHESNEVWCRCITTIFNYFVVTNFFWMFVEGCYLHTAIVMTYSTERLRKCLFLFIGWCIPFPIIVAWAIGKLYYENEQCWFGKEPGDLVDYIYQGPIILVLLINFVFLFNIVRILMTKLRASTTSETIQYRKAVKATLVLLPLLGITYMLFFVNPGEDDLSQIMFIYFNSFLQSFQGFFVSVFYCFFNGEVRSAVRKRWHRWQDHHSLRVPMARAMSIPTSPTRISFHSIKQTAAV
T2 sequence (P24387 whole entry): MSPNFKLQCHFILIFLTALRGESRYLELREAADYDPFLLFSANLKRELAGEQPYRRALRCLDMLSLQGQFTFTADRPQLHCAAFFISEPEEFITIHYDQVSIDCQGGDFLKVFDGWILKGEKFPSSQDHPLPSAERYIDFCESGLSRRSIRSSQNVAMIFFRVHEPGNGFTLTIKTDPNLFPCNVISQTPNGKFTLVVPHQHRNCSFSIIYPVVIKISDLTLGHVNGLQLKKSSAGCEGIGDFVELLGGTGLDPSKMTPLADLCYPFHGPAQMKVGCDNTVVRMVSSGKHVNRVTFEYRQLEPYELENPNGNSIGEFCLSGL

[6] = molecular target: T2, Corticotropin-releasing factor receptor 2/Corticotropin-releasing factor-binding protein; test: activators of CRF receptor 2 with binding protein – uHTS hits, confirmation (AID 602473); type: functional; details: read-out: EC50_Mean
[7] = molecular target: T3, Heat shock factor protein 1 (Mus musculus, UniProt P38532); test: decrease of HSF1-responsive luciferase luminescence – cell-based, NIH3T3, dose retest, confirmation (AID 2382); type: functional;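 also: NIH3T3 fibroblasts with HSF1-driven luciferase reporter stressed by proteasome inhibitor MG132; luminescence from HSF1-driven luciferase expression after 8 hours of MG132 stress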
T3 sequence (P38532 whole entry): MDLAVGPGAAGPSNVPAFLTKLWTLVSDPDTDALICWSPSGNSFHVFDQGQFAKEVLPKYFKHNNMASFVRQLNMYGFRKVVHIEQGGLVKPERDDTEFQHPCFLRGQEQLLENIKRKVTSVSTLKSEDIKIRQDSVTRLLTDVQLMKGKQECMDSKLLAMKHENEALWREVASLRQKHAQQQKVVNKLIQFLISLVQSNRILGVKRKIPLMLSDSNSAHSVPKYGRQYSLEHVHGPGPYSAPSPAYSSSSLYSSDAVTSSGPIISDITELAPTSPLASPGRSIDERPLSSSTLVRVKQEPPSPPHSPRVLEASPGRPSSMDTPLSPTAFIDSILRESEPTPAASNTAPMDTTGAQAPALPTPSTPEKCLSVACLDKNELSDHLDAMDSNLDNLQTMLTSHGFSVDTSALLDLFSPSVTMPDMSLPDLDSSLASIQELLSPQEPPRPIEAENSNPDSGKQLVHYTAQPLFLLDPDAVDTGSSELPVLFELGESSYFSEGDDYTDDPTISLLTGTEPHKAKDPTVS

[8] = molecular target: T4, Polyadenylate-binding protein 1 (Homo sapiens, UniProt P11940); test: MLLE binding blockers, Cy5 peptide tracer – biochemical, fluorescence polarization, Cy5-PAM2 peptide, secondary, miRNA deadenylation inhibitor project, dose response (AID 602260); type: functional; details: read-out: IC50_Mean
T4 sequence (P11940 whole entry, the tested form may be a part): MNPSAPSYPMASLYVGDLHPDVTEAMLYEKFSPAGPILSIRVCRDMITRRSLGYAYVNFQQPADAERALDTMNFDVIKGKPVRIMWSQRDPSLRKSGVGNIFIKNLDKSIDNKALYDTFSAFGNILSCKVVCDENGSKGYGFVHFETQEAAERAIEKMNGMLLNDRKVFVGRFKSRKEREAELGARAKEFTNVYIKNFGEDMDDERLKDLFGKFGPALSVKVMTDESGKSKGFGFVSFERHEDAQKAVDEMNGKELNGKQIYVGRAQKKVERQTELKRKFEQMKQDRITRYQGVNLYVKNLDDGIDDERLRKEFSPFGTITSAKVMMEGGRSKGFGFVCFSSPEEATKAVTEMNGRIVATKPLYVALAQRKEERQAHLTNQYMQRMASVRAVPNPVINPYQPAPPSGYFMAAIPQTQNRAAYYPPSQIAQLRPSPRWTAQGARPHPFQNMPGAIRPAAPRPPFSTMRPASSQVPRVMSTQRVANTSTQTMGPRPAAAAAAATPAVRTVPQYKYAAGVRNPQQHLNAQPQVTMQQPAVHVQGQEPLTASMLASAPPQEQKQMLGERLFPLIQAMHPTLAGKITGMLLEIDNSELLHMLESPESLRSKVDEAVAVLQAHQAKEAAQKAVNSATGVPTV

[9] = molecular target: T4, Polyadenylate-binding protein 1; test: MLLE domain peptide-binding blockers, IC50 – biochemical, fluorescence polarization, FITC-PAM2 peptide, dose response (AID 602259); type: functional; details: read-out: IC50_Mean
[10] = Trypanosoma cruzi growth suppression in host cells – NIH3T3 host cells, beta-gal luminescence, confirmation (AID 2044); type: functional, cell-based;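 also: intracellular parasites grown in NIH/3T3 mouse fibroblasts as host cells; luminescent beta-galactosidase reporter signal from transgenic T. cruzi replicating inside host cells; inhibitors lower the luminescence signal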
[11] = NIH3T3 cell viability loss – ATP luminescence, mouse fibroblasts, counter-screen, dose response (AID 2010); type: functional, cell-based;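 also: cells exposed to compound for about 90 hours before reading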
[12] = viability of HCT116 lacking mutant beta-catenin – cell-based, human colon tumor, dose response (AID 1045); type: functional;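 also: HCT116 colon tumor cells with beta catenin knocked out; cells exposed to compound for 60 hours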
[13] = Luminescence Cell-Based Dose Retest to Confirm Inhibitors of Cancer Stem Cells. [Related pubchem assays (depositor defined):AID2717, AID2721]; type: functional; details: Homo sapiens
[14] = tested on: Streptococcus sp. 'group A'; test: Streptococcus pyogenes SK(-)GAS viability under kanamycin – luminescence, BacTiterGlo, confirmation, counter-screen for streptokinase expression inhibitor project, dose response (AID 1900); type: functional, organism-based
Streptococcus = test: GAS UMAA2166 growth inhibition – luminescence, BacTiterGlo, counter-screen for streptokinase expression inhibitor project, dose response (AID 1915); type: functional, organism-based;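 also: potency for reduction of bacterial viability or growth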
[15] = molecular target: FAD-linked sulfhydryl oxidase ALR (Homo sapiens, UniProt P55789); test: ALR-catalysed DTT oxidation blockers – biochemical, H2O2 detection, luminescence, cherry-pick, dose response (AID 493248)
Sequence of FAD-linked sulfhydryl oxidase ALR (P55789 whole entry): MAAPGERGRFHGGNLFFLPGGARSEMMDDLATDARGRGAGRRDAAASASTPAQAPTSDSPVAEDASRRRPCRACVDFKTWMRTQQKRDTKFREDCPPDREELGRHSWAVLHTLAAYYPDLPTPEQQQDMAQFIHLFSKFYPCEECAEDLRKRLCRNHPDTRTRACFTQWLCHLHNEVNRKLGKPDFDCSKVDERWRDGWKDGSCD

CCN(c1ccccc1)S(=O)(=O)c1ccc(Cl)c(NC(=O)CN2C(=O)NC3(CCCC3)C2=O)c1
EC50 [1]: > 150 µM (inconclusive) | EC50 [2]: 4.42 µM (active)

COc1ccccc1S(=O)(=O)N(C)C[C@@H]1Oc2cc(C#CCC3CCCC3)ccc2S(=O)(=O)N([C@@H](C)CO)C[C@@H]1C
AC50 (Paired box protein Pax-8): 6.16 µM (active)

CCOC(=O)C1CCCN(c2nc3ccccc3nc2C(C#N)C(=O)OCC)C1 (stereo not given)
CC50 [3]: 33.7 µM (active)

O=c1oc2c(-c3ccc([N+](=O)[O-])cc3)cc(O)cc2s1
IC50 [4]: 6.91 µM (active)

COc1ccc(NC(=O)CN2CCC3(O)CCCCC3C2c2cc(OC)ccc2OC)cc1 (stereo not given)
IC50 [5]: > 47.1 µM (inactive) | EC50 [6]: > 53 µM (inactive)

COc1cc(/C=C/C(=O)NC(C)C2CC3CCC2C3)cc(OC)c1OC (stereo not given)
EC50 [7]: > 195 µM (not active)

O=C(O)c1cccc(-n2cccc2/C=C2\SC(=O)N(Cc3ccccc3F)C2=O)c1
IC50 [4]: 4.62 µM (active)

CCC1=CC(c2ccccc2)n2ncnc2N1 (stereo not given)
EC50 [7]: > 195 µM (not active)

Cc1cc(SCC(=O)Nc2cccc(S(N)(=O)=O)c2)c(C)cc1Br
IC50 [5]: > 47.1 µM (inactive) | EC50 [6]: > 53 µM (inactive)

C=CC[N+]1(C)CC[C@]23c4c5ccc(O)c4O[C@H]2C(=O)CC[C@@]3(O)[C@H]1C5 (stereo not given in full) [NALOXONE METHIODIDE]
IC50 [4]: 9.73 µM (active)

Cc1ccc(S(=O)(=O)CC(=O)Nc2nnc(C(C)(C)C)s2)cc1
IC50 [8]: > 66 µM (inactive) | IC50 [9]: > 66 µM (inactive)

N#Cc1c(NC(=O)c2nc3ncccn3n2)sc2c1CCCCC2
EC50 [1]: > 150 µM (inactive) | EC50 [2]: 0.403 µM (active)

CN(c1ccccc1)S(=O)(=O)c1cccc(NC(=O)CN2CCc3ccccc3C2)c1
CC50 [3]: 22.4 µM (active)

O=[N+]([O-])c1cccc(CN2[C@@H](Cc3ccccc3)COCCS2(=O)=O)c1
EC50 [7]: > 195 µM (not active)

CC1CCN(c2ccc(NC(=S)NC(=O)c3ccc(-c4cccc([N+](=O)[O-])c4)o3)cc2)CC1
IC50 [8]: > 66 µM (inactive) | IC50 [9]: > 66 µM (inactive)

O=C(Nc1cc(F)cc(F)c1)c1ccc(NCCCN2CCCCCC2)c([N+](=O)[O-])c1
EC50 [1]: 105 µM (active) | EC50 [2]: > 38 µM (not active)

COc1ccc(Nc2ccc(N3C(=O)CC(C)C3=O)cc2[N+](=O)[O-])cn1 (stereo not given)
IC50 [8]: > 66 µM (inactive) | IC50 [9]: 48.4 µM (inactive)

Cc1c(NC(=S)NC(=O)c2cccc3ccccc23)cccc1C(=O)O
IC50 [8]: > 66 µM (inactive) | IC50 [9]: > 66 µM (inactive)

CCCN(CCC)S(=O)(=O)c1ccc(NC(=O)c2cc(C(=O)OC)cc([N+](=O)[O-])c2)cc1
EC50 [7]: > 195 µM (not active) | EC50 [10]: 0.323 µM (active) | EC50 [11]: > 60 µM (inconclusive)

CC(=O)ON1C(C)(C)CC(OC(=O)c2ccccc2)CC1(C)C
EC50 [12]: 124 µM (active)

CS(=O)(=O)N(CC(=O)NCCSC1CCCCC1)c1ccc2c(c1)OCO2
EC50 [7]: > 195 µM (not active)

Cc1cccc2cc(CN(CC3CCCO3)C(c3nnnn3Cc3ccco3)C(C)C)c(O)nc12 (stereo not given)
CC50 [3]: 16.8 µM (active)

Nc1nc(-c2ccc3c(c2)OCCO3)cs1
IC50 [5]: > 47.1 µM (inactive) | EC50 [6]: > 53 µM (inactive)

COc1ccc(S(=O)(=O)N2CCCCN3[C@H](C2)[C@@H](c2ccc(C#CC(C)C)cc2)[C@@H]3CO)cc1
AC50 (Paired box protein Pax-8): 6.14 µM (active)

CCOC(=O)C1(C(=O)OCC)CCN(S(=O)(=O)c2ccccc2)CC1
IC50 [5]: > 47.1 µM (inactive) | EC50 [6]: > 53 µM (inactive)

CC(=O)c1ccc(NC(=O)CCS(=O)(=O)c2ccc3c(c2)n(C)c(=O)c(=O)n3C)cc1
IC50 [4]: > 80 µM (inactive)

C[C@@H]1CN([C@@H](C)CO)C(=O)c2cc(NS(=O)(=O)c3ccc(Cl)cc3)ccc2O[C@@H](C)CCCCO[C@H]1CN(C)Cc1ccc(C(F)(F)F)cc1
AC50 (Paired box protein Pax-8): 8.29 µM (active)

C=C(C)COc1ccc(-c2n[nH]cc2-c2ccc(OC)cc2)c(O)c1
CC50 [3]: 14.8 µM (active) | AC50 [13]: 7.79 µM (active)

CC(C)CNC(=O)CN1c2cccc3cccc(c23)S1(=O)=O
IC50 [5]: > 47.1 µM (inactive) | EC50 [6]: > 53 µM (inactive)

O=C(Nc1nnc(SCc2c(Cl)cccc2Cl)s1)C1CC(=O)N(c2ccc3c(c2)OCCO3)C1 (stereo not given)
EC50 [14]: 44.2 µM (active) | EC50 (Streptococcus): 31.8 µM (active) | IC50 [4]: 4.6 µM (active)

O=C(Nc1ccc2c(c1)CCCN2C(=O)c1cccs1)c1c(F)cccc1Cl
CC50 [3]: 24.1 µM (active)

COc1cc2c(cc1OC)C(c1ccccc1O)N(C1CC(=O)N(c3ccccc3)C1=O)CC2 (stereo not given)
IC50 [8]: > 66 µM (inactive) | IC50 [9]: > 66 µM (inactive)

O=C(CCl)Nc1cc2[nH]c(O)nc2cc1Br
AC50 (Paired box protein Pax-8): 3.95 µM (active)

COc1ccccc1NC(=O)CN1CCN(c2ccccc2OC)CC1
EC50 [1]: > 160 µM (inactive) | EC50 [2]: > 38 µM (not active)

CCCC1=Nc2nc(C)nn2C(c2cccnc2)/C1=C(\O)OCC (stereo not given)
IC50 [5]: > 47.1 µM (inactive) | EC50 [6]: > 53 µM (inactive)

Cc1nc(NS(=O)(=O)c2ccc(Br)cc2)c2c3c(sc2n1)CCC3
EC50 [1]: > 160 µM (inactive) | EC50 [2]: 1.93 µM (active)

CN(C)c1ccc(/C=N/Nc2ccc(-n3ccnc3)nn2)cc1
EC50 [7]: > 195 µM (not active) | AC50 [15]: 3.85 µM (active)

CCOC(=O)CSC1=C(C#N)C(c2ccccc2C)C2=C(O)CCCC2=N1 (stereo not given)
EC50 [7]: > 195 µM (not active)

CC(C)CC#Cc1ccc2c(c1)O[C@@H](CN(C)Cc1ccncc1)[C@H](C)CN([C@@H](C)CO)S2(=O)=O
AC50 (Paired box protein Pax-8): 5.97 µM (active)

CCOC(=O)COc1ccc(S(=O)(=O)N2CCN(c3ccccc3F)CC2)cc1
EC50 [1]: > 150 µM (inconclusive) | EC50 [2]: > 38 µM (not active)

Cc1ccc(S(=O)(=O)NN=Cc2c(O)ccc3ccccc23)cc1
IC50 [5]: > 47.1 µM (inactive) | EC50 [6]: > 53 µM (inactive)

COc1cc(O)nc(SCC(=O)Nc2nc3c(s2)CCCC3)n1
EC50 [7]: > 195 µM (not active)

CC(C)(C)c1cc(C(=O)NNc2ccc(OC(F)(F)F)cc2)n(Cc2ccccc2)n1
EC50 [1]: > 160 µM (inactive) | EC50 [2]: 3.05 µM (active)

Cc1nc(Sc2ccc(Cl)cc2)c(C#N)c(C)c1[N+](=O)[O-]
CC50 [3]: 13.2 µM (active)

Cc1ccc(C)c2nc(O)c(CCNC(=O)C(C)(C)C)cc12
EC50 [7]: > 195 µM (not active)
